Assay results reported in PubChem BioAssay AID2060487 (Molecular Pharmacology Branch, DTP, NCI, 2025).

System: 997537-175-T-J1-PDC complex spheroid viability
Assay: Anticancer human tumor 997537-175-T-J1-PDC patient-derived colon adenocarcinoma cell line growth inhibition [GQUAD]
Details: for IC50: curve of first compound; for viability, T/C: stronger effect = lower value
Summary of the method: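 Tumor cells were grown as complex spheroids with HUVEC endothelial cells and mesenchymal stem cells as stroma. G-quadruplex stabilizers were combined with targeted agents over half-log dilutions from near the clinical Cmax, or from 10 microM.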

[1] = second compound 0.0316 µM, first compound 0.0316 µM
[2] = second compound 0.0316 µM, first compound 0.1 µM
[3] = second compound 0.0316 µM, first compound 0.316 µM
[4] = second compound 0.0316 µM, first compound 1 µM
[5] = second compound 0.0316 µM, first compound 3.16 µM
[6] = second compound 0.0316 µM, first compound 10 µM
[7] = second compound 0.1 µM, first compound 0.0316 µM
[8] = second compound 0.1 µM, first compound 0.1 µM
[9] = second compound 0.1 µM, first compound 0.316 µM
[10] = second compound 0.1 µM, first compound 1 µM
[11] = second compound 0.1 µM, first compound 3.16 µM
[12] = second compound 0.1 µM, first compound 10 µM
[13] = second compound 0.316 µM, first compound 0.0316 µM
[14] = second compound 0.316 µM, first compound 0.1 µM
[15] = second compound 0.316 µM, first compound 0.316 µM
[16] = second compound 0.316 µM, first compound 1 µM
[17] = second compound 0.316 µM, first compound 3.16 µM
[18] = second compound 0.316 µM, first compound 10 µM
[19] = second compound 1 µM, first compound 0.0316 µM
[20] = second compound 1 µM, first compound 0.1 µM
[21] = second compound 1 µM, first compound 0.316 µM
[22] = second compound 1 µM, first compound 1 µM
[23] = second compound 1 µM, first compound 3.16 µM
[24] = second compound 1 µM, first compound 10 µM
[25] = second compound 3.16 µM, first compound 0.0316 µM
[26] = second compound 3.16 µM, first compound 0.1 µM
[27] = second compound 3.16 µM, first compound 0.316 µM
[28] = second compound 3.16 µM, first compound 1 µM
[29] = second compound 3.16 µM, first compound 3.16 µM
[30] = second compound 3.16 µM, first compound 10 µM
[31] = second compound 10 µM, first compound 0.0316 µM
[32] = second compound 10 µM, first compound 0.1 µM
[33] = second compound 10 µM, first compound 0.316 µM
[34] = second compound 10 µM, first compound 1 µM
[35] = second compound 10 µM, first compound 3.16 µM
[36] = second compound 10 µM, first compound 10 µM
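Note: spheroids exposed to the agents for 7 days.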
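Throughout, for viability, T/C: 100% = DMSO vehicle control viability.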

With `CC1COCCN1c1cc(C2(S(C)(=N)=O)CC2)nc(-c2ccnc3[nH]ccc23)n1` (stereo not drawn) + CN(C)c1ccc(Nc2c3ccc(NC(=O)CCN4CCCC4)cc3nc3cc(NC(=O)CCN4CCCC4)ccc23)cc1 the IC50 (second compound 0.0316 µM) was 8420 nM, the IC50 (second compound 0.1 µM) was over 10000 nM and the IC50 (second compound 0.316 µM) was over 10000 nM. For the same compound, the IC50 (second compound 1 µM) was over 10000 nM, the IC50 (second compound 3.16 µM) was over 10000 nM and the IC50 (second compound 10 µM) was over 10000 nM. The viability, T/C [1] was 93.6%, the viability, T/C [2] was 82.9% and the viability, T/C [3] was 74.4%. The viability, T/C [4] was 84.5%, the viability, T/C [5] was 56% and the viability, T/C [6] was 49%. The viability, T/C [7] was 82.3%, the viability, T/C [8] was 80% and the viability, T/C [9] was 75.1%. It also gave a viability, T/C [10] of 59.5%, a viability, T/C [11] of 48.6% and a viability, T/C [12] of 81.9%. The viability, T/C [13] was 98.7%, the viability, T/C [14] was 66.3% and the viability, T/C [15] was 79.2%. It also gave a viability, T/C [16] of 76%, a viability, T/C [17] of 65% and a viability, T/C [18] of 76%. The viability, T/C [19] was 90%, the viability, T/C [20] was 67.4% and the viability, T/C [21] was 87.8%. The viability, T/C [22] was 75.8%, the viability, T/C [23] was 70.9% and the viability, T/C [24] was 70.5%. The viability, T/C [25] was 70.2%, the viability, T/C [26] was 93% and the viability, T/C [27] was 86.7%. It also gave a viability, T/C [28] of 82.8%, a viability, T/C [29] of 73.4% and a viability, T/C [30] of 70.6%. It also gave a viability, T/C [31] of 77%, a viability, T/C [32] of 95.7% and a viability, T/C [33] of 94.5%. It also gave a viability, T/C [34] of 88.9%, a viability, T/C [35] of 55.5% and a viability, T/C [36] of 77%.

In the case of `CC[C@@]1(O)C(=O)OCc2c1cc1n(c2=O)Cc2cc3c(CN(C)C)c(O)ccc3nc2-1` + CN(C)c1ccc(Nc2c3ccc(NC(=O)CCN4CCCC4)cc3nc3cc(NC(=O)CCN4CCCC4)ccc23)cc1, the IC50 (second compound 0.0316 µM) is reported as over 316 nM, the IC50 (second compound 0.1 µM) is reported as over 316 nM and the IC50 (second compound 0.316 µM) is reported as over 316 nM. It also gave an IC50 (second compound 1 µM) of over 316 nM, an IC50 (second compound 3.16 µM) of over 316 nM and an IC50 (second compound 10 µM) of over 316 nM. The viability, T/C (second compound 0.0316 µM, first compound 0.000999 µM) was 90%, the viability, T/C (second compound 0.0316 µM, first compound 0.00316 µM) was 84.8% and the viability, T/C (second compound 0.0316 µM, first compound 0.00999 µM) was 86.4%. For the same compound, the viability, T/C [1] was 61.1%, the viability, T/C (second compound 0.0316 µM, first compound 0.0999 µM) was 82.5% and the viability, T/C [3] was 64.2%. For the same compound, the viability, T/C (second compound 0.1 µM, first compound 0.000999 µM) was 99%, the viability, T/C (second compound 0.1 µM, first compound 0.00316 µM) was 103% and the viability, T/C (second compound 0.1 µM, first compound 0.00999 µM) was 92.3%. It also gave a viability, T/C [7] of 86.2%, a viability, T/C (second compound 0.1 µM, first compound 0.0999 µM) of 76.8% and a viability, T/C [9] of 63.3%. For the same compound, the viability, T/C (second compound 0.316 µM, first compound 0.000999 µM) was 82.3%, the viability, T/C (second compound 0.316 µM, first compound 0.00316 µM) was 81.9% and the viability, T/C (second compound 0.316 µM, first compound 0.00999 µM) was 87.3%. For the same compound, the viability, T/C [13] was 97.8%, the viability, T/C (second compound 0.316 µM, first compound 0.0999 µM) was 91.5% and the viability, T/C [15] was 69.3%. For the same compound, the viability, T/C (second compound 1 µM, first compound 0.000999 µM) was 79.3%, the viability, T/C (second compound 1 µM, first compound 0.00316 µM) was 91.1% and the viability, T/C (second compound 1 µM, first compound 0.00999 µM) was 108%. It also gave a viability, T/C [19] of 90.6%, a viability, T/C (second compound 1 µM, first compound 0.0999 µM) of 96.9% and a viability, T/C [21] of 68.9%. The viability, T/C (second compound 3.16 µM, first compound 0.000999 µM) was 63.8%, the viability, T/C (second compound 3.16 µM, first compound 0.00316 µM) was 79.7% and the viability, T/C (second compound 3.16 µM, first compound 0.00999 µM) was 90.4%. The viability, T/C [25] was 86.4%, the viability, T/C (second compound 3.16 µM, first compound 0.0999 µM) was 95.2% and the viability, T/C [27] was 65.9%. For the same compound, the viability, T/C (second compound 10 µM, first compound 0.000999 µM) was 86.3%, the viability, T/C (second compound 10 µM, first compound 0.00316 µM) was 88.6% and the viability, T/C (second compound 10 µM, first compound 0.00999 µM) was 98.7%. The viability, T/C [31] was 103%, the viability, T/C (second compound 10 µM, first compound 0.0999 µM) was 99.6% and the viability, T/C [33] was 73.3%.

For `C#Cc1c(F)ccc2cc(O)cc(-c3ncc4c(N5CC6CCC(C5)N6)nc(OCC56CCCN5CC(F)C6)nc4c3F)c12` (stereo not drawn) + CN(C)c1ccc(Nc2c3ccc(NC(=O)CCN4CCCC4)cc3nc3cc(NC(=O)CCN4CCCC4)ccc23)cc1, the IC50 (second compound 0.0316 µM) was over 10000 nM, the IC50 (second compound 0.1 µM) was over 10000 nM and the IC50 (second compound 0.316 µM) was over 10000 nM. The IC50 (second compound 1 µM) was over 10000 nM, the IC50 (second compound 3.16 µM) was over 10000 nM and the IC50 (second compound 10 µM) was over 10000 nM. It also gave a viability, T/C [1] of 102%, a viability, T/C [2] of 97.8% and a viability, T/C [3] of 98.9%. The viability, T/C [4] was 91.1%, the viability, T/C [5] was 87.1% and the viability, T/C [6] was 107%. For the same compound, the viability, T/C [7] was 97.7%, the viability, T/C [8] was 89.4% and the viability, T/C [9] was 92.6%. For the same compound, the viability, T/C [10] was 65.7%, the viability, T/C [11] was 110% and the viability, T/C [12] was 106%. The viability, T/C [13] was 97.2%, the viability, T/C [14] was 104% and the viability, T/C [15] was 103%. For the same compound, the viability, T/C [16] was 83.4%, the viability, T/C [17] was 103% and the viability, T/C [18] was 105%. For the same compound, the viability, T/C [19] was 89.5%, the viability, T/C [20] was 93.3% and the viability, T/C [21] was 92%. The viability, T/C [22] was 82.9%, the viability, T/C [23] was 101% and the viability, T/C [24] was 108%. For the same compound, the viability, T/C [25] was 69.6%, the viability, T/C [26] was 97% and the viability, T/C [27] was 103%. The viability, T/C [28] was 106%, the viability, T/C [29] was 106% and the viability, T/C [30] was 124%. It also gave a viability, T/C [31] of 86.8%, a viability, T/C [32] of 101% and a viability, T/C [33] of 106%. It also gave a viability, T/C [34] of 106%, a viability, T/C [35] of 114% and a viability, T/C [36] of 113%.

In the case of `CC1COCCN1c1cc(-c2ccnn2C)c2ccnc(-c3ccn[nH]3)c2n1` (stereo not drawn) + Cc1[nH]c2ccc(F)cc2c1-c1nc2c3cccnc3c3ncccc3c2[nH]1, the IC50 (second compound 0.0316 µM) is reported as 209 nM, the IC50 (second compound 0.1 µM) is reported as 287 nM and the IC50 (second compound 0.316 µM) is reported as 288 nM. It also gave an IC50 (second compound 1 µM) of 376 nM, an IC50 (second compound 3.16 µM) of 179 nM and an IC50 (second compound 10 µM) of 113 nM. For the same compound, the viability, T/C [1] was 82.8%, the viability, T/C [2] was 66.7% and the viability, T/C [3] was 36.5%. For the same compound, the viability, T/C [4] was 28.3%, the viability, T/C [5] was 35% and the viability, T/C [6] was 62.5%. It also gave a viability, T/C [7] of 86.1%, a viability, T/C [8] of 64.5% and a viability, T/C [9] of 57.3%. It also gave a viability, T/C [10] of 24.7%, a viability, T/C [11] of 37.3% and a viability, T/C [12] of 46.5%. It also gave a viability, T/C [13] of 76.7%, a viability, T/C [14] of 58.5% and a viability, T/C [15] of 57.4%. For the same compound, the viability, T/C [16] was 32.5%, the viability, T/C [17] was 36.4% and the viability, T/C [18] was 46.4%. The viability, T/C [19] was 60.4%, the viability, T/C [20] was 56.1% and the viability, T/C [21] was 51.6%. The viability, T/C [22] was 21.6%, the viability, T/C [23] was 42.6% and the viability, T/C [24] was 57.9%. It also gave a viability, T/C [25] of 54.8%, a viability, T/C [26] of 70.2% and a viability, T/C [27] of 29.2%. It also gave a viability, T/C [28] of 40.8%, a viability, T/C [29] of 33.8% and a viability, T/C [30] of 47%. For the same compound, the viability, T/C [31] was 65.8%, the viability, T/C [32] was 55.3% and the viability, T/C [33] was 36.4%. It also gave a viability, T/C [34] of 42.5%, a viability, T/C [35] of 52.3% and a viability, T/C [36] of 47.9%.
